Source: patent US20090131441A1, “Metabolites Of 2-Arylpropionic Acid Derivatives And Pharmaceutical Compositions Containing Them” (DOMPE phar.r.ma S.p.A., priority 2005, published 2009)

Assays:
[1] = tested on: IL-8 induced chemotaxis of human PMNs; assay: IL-8 induced PMN chemotaxis assay; format: cell-based; settings: read-out: inhibition of IL-8-induced PMN migration
Procedure: The compounds of the invention of formula (I) were evaluated in vitro for their ability to inhibit chemotaxis of polymorphonucleate leukocytes (hereinafter referred to as PMNs) and monocytes induced by the fractions of IL-8 and GRO-α and C5a and directly compared to the corresponding parent 4-isobutyl compounds of formula (III). For this purpose, in order to isolate the PMNs from heparinized human blood, taken from healthy adult volunteers, mononucleates were removed by means of sedimentation on dextran (according to the procedure disclosed by W. J. Ming et al., J. Immunol., 138, 1469, 1987) and red blood cells by a hypotonic solution. The cell vitality was calculated by exclusion with Trypan blue, whilst the ratio of the circulating polymorphonucleates was estimated on the cytocentrifugate after staining with Diff Quick. […]
The compounds of the invention in formula (I) were evaluated at a concentration ranging between 10^−6 and 10^−10 M; for this purpose they were added, at the same concentration, both to the lower pores and the upper pores of the microchamber. […]

[2] = T1/2 after single bolus i.v. administration in rat; settings: in vivo, iv; after single bolus i.v. administration in rat (15 mg/Kg); read-out: T½ (converted)
Text: Furthermore, the compounds of formula (I) have a pharmacokinetic profile particularly advantageous for the therapeutic use. In fact, as compared to the compounds of formula (III), the compounds of the invention, administered “in vivo” by the i.v. route, show a longer T1/2 associated to a reduced clearance time.
(§1) Table I and II show, as an example, the significant differences in T1/2 and protein binding (%) between metabolites of formula (I) and corresponding parent compounds of formula (III).

[3] = in vitro binding to rat plasma proteins; format: in vitro ADME; settings: compound concentration 10 μg/mL, read-out: Protein Binding (converted)
Text: as §1

half-life [2] [h] | fraction unbound at 10 μg/mL [3] | SMILES | inhibition at 1 µM ([1]; compound concentration 10^−6M) [%] | inhibition at 0.01 µM ([1]; compound concentration 10^−8M) [%]
2 | 0.28 | CC(Cc1ccc([C@@H](C)C(=O)NS(C)(=O)=O)cc1)C(=O)O (stereo partly drawn) [Example 1, (2R) (2″ R, S) 2-[4′-(2″-carboxyprop-1-yl)phenyl]propionyl methanesulfonamide] | 66 ± 8 | 49 ± 9
0.5 | < 0.01 | CC(C)Cc1ccc([C@@H](C)C(=O)NS(C)(=O)=O)cc1 [(R)-2-[(4-isobutyl)phenyl]propionyl methanesulfonamide, reference compound] | – | –
1 | 0.2 | CC(C)Cc1ccc([C@@H](C)C(=O)NCCCN2CCCCC2)cc1 [(R)-2-[(4-isobutyl)phenyl]-N-[3″-(N′-piperidino)propyl]propionamide, reference compound] | – | –
2 | 0.3 | CC(Cc1ccc([C@@H](C)C(=O)NCCCN2CCCCC2)cc1)C(=O)O (stereo partly shown) [Example 4] | – | –
